US9976141B2, “Compositions and methods for inhibiting gene expression of Hif2alpha” (Arrowhead Madison Inc., priority 2015, dated 2018)
Strand notation (5' to 3'): a small letter for the sugar, then the base; units joined by * are phosphorothioate-linked, units joined directly phosphodiester-linked; [ ] holds rarer units or linkages, { } end groups; capitals alone tell only the bases. d = 2'-deoxy (DNA); m = 2'-O-methyl; f = 2'-fluoro

System: human EPAS1 (Hif2α) cDNA in psiCHECK2 (Renilla luciferase/EPAS1 fusion mRNA) in Hep3B cells
Assay: Efficacy screen of Hif2α RNAi triggers in vitro, dual-luciferase reporter assay (1 nM and 0.1 nM)
Format: cell-based
Conditions: Hep3B cells co-transfected with EPAS1-psiCHECK2, Renilla luciferase normalized to firefly luciferase
Excerpt: Candidate sequences were identified by in silico analysis and screened as chemically modified canonical siRNAs in vitro. For screening purposes, the human EPAS1 (Hif2α) cDNA sequence (accession #NM 001430) was synthesized and cloned (DNA 2.0, Menlo Park, Calif.) into a commercially-available reporter-based screening plasmid, psiCHECK2 (Promega, Madison, Wis.) which generated a Renilla luciferase/EPAS1 fusion mRNA. For RNAi trigger efficacy evaluation, Hep3B cells, a human hepatocellular carcinoma line, were plated at 10,000 cells per well in 96-well format. Each of the 187 EPAS1 RNAi triggers, in two subsets, was co-transfected at two concentrations, 1 nM and 0.1 nM, with 25 ng EPAS1-psiCHECK2 plasmid DNA per well and 0.2 μL LipoFectamine 2000 (Life Technologies) per well. Gene knockdown was determined by measuring Renilla luciferase levels normalized to the levels of constitutively-expressed firefly luciferase, also present on the psiCHECK-2 plasmid, using the Dual Luciferase Reporter Assay (Promega, Madison, Wis.) Table 5.

Substance | Relative Rluc-Hif2α (0.1 nM RNAi trigger) | Relative Rluc-Hif2α (1 nM RNAi trigger)
2411 (sense fGmAfAmUfUmCfCmUfAmCfUmGfAmCfAmAfCmAfAdT; antisense dTfUmGfUmUfGmUfCmAfGmUfAmGfGmAfAmUfUmCdT*dT; siRNA) [compound 2411] | 0.796 ± 0.110 | 0.410 ± 0.083
2376 (sense fGmAfUmGfGmUfCmUfUmUfCmAfCmAfCmGfGmCfAdT; antisense dTfGmCfCmGfUmGfUmGfAmAfAmGfAmCfCmAfUmCdT*dT; siRNA) [compound 2376] | 0.546 ± 0.115 | 0.228 ± 0.029
2357 (sense fGmGfUmGfUmGfAmCfAmAfUmCfCmGfAmGfCmAfAdT; antisense dTfUmGfCmUfCmGfGmAfUmUfGmUfCmAfCmAfCmCdT*dT; siRNA) [compound 2357] | 0.737 ± 0.082 | 0.435 ± 0.062
2316 (sense fGmCfUmCfGmAfGmGfCmCfCmAfGmAfCmGfUmGfAdT; antisense dTfCmAfCmGfUmCfUmGfGmGfCmCfUmCfGmAfGmCdT*dT; siRNA) [compound 2316] | 0.797 ± 0.211 | 0.579 ± 0.055
2387 (sense fAmUfAmCfCmAfAmUfUmAfCmAfUmGfGmAfAmCfAdT; antisense dTfGmUfUmCfCmAfUmGfUmAfAmUfUmGfGmUfAmUdT*dT; siRNA) [compound 2387] | 0.436 ± 0.028 | 0.201 ± 0.063
2242 (sense fGmGfGmUfUmUfCmAfUmUfGmCfCmGfUmGfGmUfAdT; antisense dTfAmCfCmAfCmGfGmCfAmAfUmGfAmAfAmCfCmCdT*dT; siRNA) [compound 2242] | 0.411 ± 0.019 | 0.222 ± 0.064
2295 (sense fAmCfGmCfCmCfAmAfUmAfGmCfCmCfUmGfAmAfAdT; antisense dTfUmUfCmAfGmGfGmCfUmAfUmUfGmGfGmCfGmUdT*dT; siRNA) [compound 2295] | 1.047 ± 0.184 | 0.863 ± 0.122
2368 (sense fCmAfCmGfUmUfGmUfGmGfGmGfUmCfGmGfGmGfAdT; antisense dTfCmCfCmCfGmAfCmCfCmCfAmCfAmAfCmGfUmGdT*dT; siRNA) [compound 2368] | 1.036 ± 0.063 | 1.140 ± 0.221
2314 (sense fAmAfAmGfGmGfUmUfUmUfGmGfGmGfCmUfCmGfAdT; antisense dTfCmGfAmGfCmCfCmCfAmAfAmAfCmCfCmUfUmUdT*dT; siRNA) [compound 2314] | 0.692 ± 0.141 | 0.920 ± 0.150
2366 (sense fGmGfCmAfCmGfUmUfGmUfGmGfGmGfUmCfGmGfAdT; antisense dTfCmCfGmAfCmCfCmCfAmCfAmAfCmGfUmGfCmCdT*dT; siRNA) [compound 2366] | 0.879 ± 0.223 | 0.695 ± 0.115
2375 (sense fCmGfGmAfUmGfGmUfCmUfUmUfCmAfCmAfCmGfAdT; antisense dTfCmGfUmGfUmGfAmAfAmGfAmCfCmAfUmCfCmGdT*dT; siRNA) [compound 2375] | 0.481 ± 0.062 | 0.305 ± 0.040
2341 (sense fUmCfAmAfCmUfCmCfAmAfCmGfUmAfUmGfUmGfAdT; antisense dTfCmAfCmAfUmAfCmGfUmUfGmGfAmGfUmUfGmAdT*dT; siRNA) [compound 2341] | 0.378 ± 0.116 | 0.202 ± 0.018
2319 (sense fCmUfUmUfGmAfUmGfCmCfGmGfAmCfAmAfGmCfAdT; antisense dTfGmCfUmUfGmUfCmCfGmGfCmAfUmCfAmAfAmGdT*dT; siRNA) [compound 2319] | 0.454 ± 0.101 | 0.234 ± 0.055
2313 (sense fAmGfUmGfGmGfCmCfGmUfCmGfGmGfGmAfUmCfAdT; antisense dTfGmAfUmCfCmCfCmGfAmCfGmGfCmCfCmAfCmUdT*dT; siRNA) [compound 2313] | 0.853 ± 0.133 | 0.886 ± 0.243
2417 (sense fAmAfGmUfAmUfUmCfUmGfAmUfCmCfUmAfCmCfAdT; antisense dTfGmGfUmAfGmGfAmUfCmAfGmAfAmUfAmCfUmUdT*dT; siRNA) [compound 2417] | 0.295 ± 0.057 | 0.253 ± 0.037
2251 (sense fUmCfAmCfUmCfAmUfCmCfCmUfGmCfGmAfCmCfAdT; antisense dTfGmGfUmCfGmCfAmGfGmGfAmUfGmAfGmUfGmAdT*dT; siRNA) [compound 2251] | 0.857 ± 0.087 | 0.872 ± 0.121
2284 (sense fGmCfAmUfGmGfGmGfGmCfUmAfCmGfUmGfUmGfAdT; antisense dTfCmAfCmAfCmGfUmAfGmCfCmCfCmCfAmUfGmCdT*dT; siRNA) [compound 2284] | 1.227 ± 0.266 | 0.787 ± 0.062

Substance | Relative Rluc-Hif2α (0.1 nM RNAi trigger) | Relative Rluc-Hif2α (1 nM RNAi trigger)
2330 (sense fGmAfUmAfUmGfAmCfUmGfUmGfAmGfGmUfGmAfAdT; antisense dTfUmCfAmCfCmUfCmAfCmAfGmUfCmAfUmAfUmCdT*dT; siRNA) [compound 2330] | 1.097 ± 0.416 | 0.464 ± 0.035
2322 (sense fGmGfAmCfAmAfGmCfCmAfCmUfGmAfGmCfGmCfAdT; antisense dTfGmCfGmCfUmCfAmGfUmGfGmCfUmUfGmUfCmCdT*dT; siRNA) [compound 2322] | 0.468 ± 0.012 | 0.306 ± 0.059
2246 (sense fGmAfGmCfUmAfAmCfAmGfGmAfCmAfUmAfGmUfAdT; antisense dTfAmCfUmAfUmGfUmCfCmUfGmUfUmAfGmCfUmCdT*dT; siRNA) [compound 2246] | 0.509 ± 0.044 | 0.327 ± 0.042
2356 (sense fAmUfAmGfGmUfGmUfGmAfCmAfAmUfCmCfGmAfAdT; antisense dTfUmCfGmGfAmUfUmGfUmCfAmCfAmCfCmUfAmUdT*dT; siRNA) [compound 2356] | 0.574 ± 0.006 | 0.210 ± 0.023
2405 (sense fUmGfUmCfAmAfCmGfUmAfAmCfGmAfUmUfUmCfAdT; antisense dTfGmAfAmAfUmCfGmUfUmAfCmGfUmUfGmAfCmAdT*dT; siRNA) [compound 2405] | 0.261 ± 0.044 | 0.138 ± 0.035
2325 (sense fGmAfCmUfAmCfAmGfCmCfUmGfUmCfGmUfCmAfAdT; antisense dTfUmGfAmCfGmAfCmAfGmGfCmUfGmUfAmGfUmCdT*dT; siRNA) [compound 2325] | 1.304 ± 0.134 | 1.379 ± 0.275
2350 (sense fUmGfUmCfGmGfCmUfUmUfUmUfGmCfCmAfUmCfAdT; antisense dTfGmAfUmGfGmCfAmAfAmAfAmGfCmCfGmAfCmAdT*dT; siRNA) [compound 2350] | 0.755 ± 0.085 | 0.678 ± 0.105
2388 (sense fCmCfAmAfCmUfAmUfUmUfAmGfUmAfAmGfCmCfAdT; antisense dTfGmGfCmUfUmAfCmUfAmAfAmUfAmGfUmUfGmGdT*dT; siRNA) [compound 2388] | 0.901 ± 0.318 | 0.436 ± 0.021
2346 (sense fAmAfCmGfUmAfUmGfUmGfGmUfUmAfUmCfUmGfAdT; antisense dTfCmAfGmAfUmAfAmCfCmAfCmAfUmAfCmGfUmUdT*dT; siRNA) [compound 2346] | 0.523 ± 0.133 | 0.273 ± 0.012
2301 (sense fAmUfCmUfUmCfUmUfUmGfAmUfGmCfCmGfGmAfAdT; antisense dTfUmCfCmGfGmCfAmUfCmAfAmAfGmAfAmGfAmUdT*dT; siRNA) [compound 2301] | 0.558 ± 0.034 | 0.423 ± 0.102
2389 (sense fAmAfCmUfAmUfUmUfAmGfUmAfAmGfCmCfCmGfAdT; antisense dTfCmGfGmGfCmUfUmAfCmUfAmAfAmUfAmGfUmUdT*dT; siRNA) [compound 2389] | 1.085 ± 0.307 | 0.820 ± 0.184
2327 (sense fCmCfUmGfUmCfGmUfCmAfGmCfCmCfAmCfAmAfAdT; antisense dTfUmUfGmUfGmGfGmCfUmGfAmCfGmAfCmAfGmGdT*dT; siRNA) [compound 2327] | 1.339 ± 0.179 | 1.073 ± 0.089
2275 (sense fUmGfCmGfCmUfAmGfAmCfUmCfCmGfAmGfAmAfAdT; antisense dTfUmUfCmUfCmGfGmAfGmUfCmUfAmGfCmGfCmAdT*dT; siRNA) [compound 2275] | 0.515 ± 0.264 | 0.464 ± 0.048
2338 (sense fAmGfGmGfUmCfAmAfCmUfCmCfAmAfCmGfUmAfAdT; antisense dTfUmAfCmGfUmUfGmGfAmGfUmUfGmAfCmCfCmUdT*dT; siRNA) [compound 2338] | 0.743 ± 0.070 | 0.334 ± 0.091
2237 (sense fGmUfGmCfUmCfGmGfCmGfUmCfUmGfAmAfCmGfAdT; antisense dTfCmGfUmUfCmAfGmAfCmGfCmCfGmAfGmCfAmCdT*dT; siRNA) [compound 2237] | 0.746 ± 0.029 | 0.978 ± 0.083
2252 (sense fGmAfGmAfUmUfCmGfUmGfAmGfAmAfCmCfUmGfAdT; antisense dTfCmAfGmGfUmUfCmUfCmAfCmGfAmAfUmCfUmCdT*dT; siRNA) [compound 2252] | 0.696 ± 0.096 | 0.592 ± 0.061
